Results as given in patent US5700679A, “Lipid vesicles having a bilayer containing a surfactant with anti-viral and spermicidal activity” (priority 1996, dated 1997).

What was measured:
spermatozoa = settings: cited from earlier work
[1] = test system: spermatozoa (human semen); test: Sander-Cramer Spermicidal Assay; type: cell-based; settings: highest dilution that immobilizes spermatozoa in less than 20 seconds; NP9 concentration 10 mg/mL in DMSO
Description: In this Example, the preparation of Example 1 was tested for spermicidal activity using the Sander-Cramer spermicidal assay. A series of dilutions of the test compound are prepared using 0.9% saline. 1 mL of test article is mixed with 0.2 mL of human semen in a […] by drawing the mixture into a pipet and forcibly expressing the mixture. This procedure is repeated 6 times. A hanging drop of the mixture is prepared and five fields are observed under low power magnification. The whole process from mixing to microscopic observation must be accomplished in less than 20 seconds. The end point is the highest dilution that immobilizes spermatozoa in less than 20 seconds.

| Substance | spermicidal properties (in words) (spermatozoa) | Highest Spermicidal Dilution [1] |
| --- | --- | --- |
| polyethylene glycol p-isooctylphenyl ether [TRITON-X] | some spermicidal properties |  |
| poly(ethylene glycol) p-nonylphenyl ether [NP9 Control] |  | 91 |
